For 6 molecules, mutagenic call and call results are on record in PubChem BioAssay AID1259408 (Genetic Toxicology Data Bank (GENE-TOX), 2018).

Activity calls are given as the source filed them. How the calls were made is not given here.

This series deals with GENE-TOX genotoxicity assays, various organisms and cells. Put plainly: GENE-TOX mutagenicity studies. The following applies: for call: Assay Type: In vivo carcinogenicity studies.
Where [1] appears, read: Species/Cell Type: Allium cepa, Assay Type: Chromosome aberrations, Assay Code: ALC+D, Dose Response: With dose response, Evaluation Type: Evaluation A (Pre-1980).
Setting [2] is: Species/Cell Type: Escherichia coli polA (W3119 vs P3478), Assay Type: Rec-assay, DNA effects (bacterial DNA repair), Assay Code: RE1+, Evaluation Type: Evaluation A (Pre-1980).
The mark [3] stands for this setting: Species/Cell Type: Saccharomyces cerevisiae, Assay Type: Mitotic recombination or gene conversion, Assay Code: YEC+, Evaluation Type: Evaluation A (Pre-1980).
The mark [4] stands for this setting: Species/Cell Type: Syrian hamster embryo (SA7/SHE) cells, Assay Type: Cell transformation, viral enhanced, Assay Code: CT7+, Evaluation Type: Evaluation A (Pre-1980).
The mark [5] stands for this setting: Species/Cell Type: Salmonella typhimurium (one or more of the five standard strains: TA98, TA100, TA1535, TA1537, and TA1538), Assay Type: Histidine reverse gene mutation, Ames assay, Assay Code: SAL+, Evaluation Type: Evaluation A (Pre-1980).

In the case of `CN(C)c1ccc2cc3ccc(N(C)C)cc3nc2c1`, the mutagenic call is “active; positive” under setting [1]; “no conclusion” (Species/Cell Type: Bacillus subtilis (H17 vs M45T), Assay Type: Rec-assay, spot test, DNA effects (bacterial DNA repair), Assay Code: REXT, Evaluation Type: Evaluation A (Pre-1980)); “active; positive” (Species/Cell Type: Chinese hamster ovary (CHO) cells, Assay Type: Forward gene mutation at the HPRT locus, Assay Code: CHO+, Evaluation Type: Evaluation B (Post-1980)); “no conclusion” (Species/Cell Type: Drosophila melanogaster, Assay Type: Sex-linked recessive lethal gene mutation, Assay Code: SRLT, Evaluation Type: Evaluation A (Pre-1980)); “active; positive” under setting [2]; “active; positive” (Species/Cell Type: Human lymphocytes, Assay Type: Sister-chromatid exchange (SCE) in vitro, Assay Code: SCL+, Evaluation Type: Evaluation B (Post-1980)). The mutagenic call reads like this: (Species/Cell Type: Human, Assay Type: Sister-chromatid exchange (SCE) in vitro, Assay Code: SC1+, Evaluation Type: Evaluation B (Post-1980)) “active; positive”; (Species/Cell Type: Mammalian polychromatic erythrocytes, Assay Type: Micronucleus test, chromosome aberrations, Assay Code: MNT+, Evaluation Type: Evaluation B (Post-1980)) “active; positive”; (Species/Cell Type: Mouse, Sex: Female, Assay Type: Spot test, gene mutation, Assay Code: MST+, Evaluation Type: Evaluation A (Pre-1980)) “active; positive”; (Species/Cell Type: Nonhuman, Assay Type: Sister-chromatid exchange (SCE) in vitro, Assay Code: SC2+D, Dose Response: With dose response, Evaluation Type: Evaluation A (Pre-1980)) “active; positive”; (Species/Cell Type: Saccharomyces cerevisiae, Assay Type: Forward gene mutation, Assay Code: YEFT, Evaluation Type: Evaluation A (Pre-1980)) “no conclusion”; under setting [3], “active; positive”. Also, the mutagenic call was “active; positive” (Species/Cell Type: Saccharomyces cerevisiae, Assay Type: Mitotic recombination or gene conversion, Assay Code: YEH+, Evaluation Type: Evaluation A (Pre-1980)); “active; positive” (Species/Cell Type: Salmonella typhimurium (one or more of the five standard strains: TA98, TA100, TA1535, TA1537, and TA1538), Assay Type: Histidine reverse gene mutation, Ames assay, Assay Code: SAL+*, Activation: With metabolic activation, Evaluation Type: Evaluation A (Pre-1980)); “active; positive” (Species/Cell Type: Salmonella typhimurium, Assay Type: Forward and reverse gene mutation, host-mediated assay, Assay Code: HMA+, Evaluation Type: Evaluation A (Pre-1980)); “active; positive” under setting [4]; “no conclusion” (Species/Cell Type: Syrian hamster embryo (SHE) cells, Assay Type: Cell transformation, clonal assay, Assay Code: CTCT, Evaluation Type: Evaluation A (Pre-1980)). The call (Species/Cell Type: Nonhuman, Assay Code: CCGT, Evaluation Type: Evaluation A (Pre-1980)) is given as “no conclusion”.

With `FC(F)(Cl)Cl`, under “Species/Cell Type: Tradescantia species, Assay Type: Gene mutation, Assay Code: TRM-, Evaluation Type: Evaluation A (Pre-1980)”, the mutagenic call was “inactive; negative”.

For the molecule `O=C(O)c1ccc([N+](=O)[O-])o1`, the mutagenic call is, setting by setting: (Species/Cell Type: Bacillus subtilis (H17 vs M45T), Assay Type: Rec-assay, spot test, DNA effects (bacterial DNA repair), Assay Code: REX-, Evaluation Type: Evaluation A (Pre-1980)) “inactive; negative”; (Species/Cell Type: Escherichia coli WP2, Assay Type: Tryptophan reverse gene mutation, Assay Code: WP2-, Evaluation Type: Evaluation A (Pre-1980)) “inactive; negative”; (Species/Cell Type: Escherichia coli WP2 UVRA, Assay Type: Tryptophan reverse gene mutation, Assay Code: WPU-, Evaluation Type: Evaluation A (Pre-1980)) “inactive; negative”; under setting [5], “active; positive”.

Take `Oc1cc(O)c2ccccc2c1`: the mutagenic call (Species/Cell Type: Allium cepa, Assay Type: Chromosome aberrations, Assay Code: ALCT, Evaluation Type: Evaluation A (Pre-1980)) is “no conclusion”.

Regarding `[Cu+].[Cu].[SH-]`, under setting [4], the mutagenic call was “active; positive”.

For `CN(N=O)C(N)=O`, the mutagenic call by setting is: under setting [1], “active; positive”; (Species/Cell Type: Arabidopsis species, Assay Type: Gene mutation, Assay Code: ARM+D, Dose Response: With dose response, Evaluation Type: Evaluation A (Pre-1980)) “active; positive”; (Species/Cell Type: Chinese hamster lung (V79) cells, Assay Type: Forward gene mutation at the HPRT or ouabain locus, Assay Code: V79+, Evaluation Type: Evaluation A (Pre-1980)) “active; positive”; (Species/Cell Type: Chinese hamster ovary (CHO) cells, Assay Type: Forward gene mutation at the HPRT locus, Assay Code: CHO+D, Dose Response: With dose response, Evaluation Type: Evaluation A (Pre-1980)) “active; positive”; (Species/Cell Type: Drosophila melanogaster, Assay Type: Aneuploidy, partial sex chromosome loss, chromosome aberrations, Assay Code: DAP+M, Evaluation Type: Evaluation A (Pre-1980)) “active; positive”; (Species/Cell Type: Drosophila melanogaster, Assay Type: Aneuploidy, whole sex chromosome loss, chromosome aberrations, Assay Code: DAC+M, Evaluation Type: Evaluation A (Pre-1980)) “active; positive”. For the same molecule, the mutagenic call is, setting by setting: (Species/Cell Type: Drosophila melanogaster, Assay Type: Sex-linked recessive lethal gene mutation, Assay Code: SRL+, Evaluation Type: Evaluation A (Pre-1980)) “active; positive”; (Species/Cell Type: Drosophila melanogaster, Sex: Male, Assay Type: Heritable translocation test, chromosome aberrations, Assay Code: DHT+, Evaluation Type: Evaluation A (Pre-1980)) “active; positive”; (Species/Cell Type: Escherichia coli WP2, Assay Type: Tryptophan reverse gene mutation, Assay Code: WP2+, Evaluation Type: Evaluation A (Pre-1980)) “active; positive”; (Species/Cell Type: Escherichia coli WP2 UVRA, Assay Type: Tryptophan reverse gene mutation, Assay Code: WPU+, Evaluation Type: Evaluation A (Pre-1980)) “active; positive”; under setting [2], “active; positive”; (Species/Cell Type: Glycine max (soybean), Assay Type: Gene mutation, Assay Code: GLM+, Evaluation Type: Evaluation A (Pre-1980)) “active; positive”. Also, the mutagenic call (Species/Cell Type: Hordeum vulgare (barley), Assay Type: Chromosome aberrations, Assay Code: HOC+, Evaluation Type: Evaluation A (Pre-1980)) is “active; positive”; the mutagenic call (Species/Cell Type: Hordeum vulgare (barley), Assay Type: Gene mutation, Assay Code: HOM+, Evaluation Type: Evaluation A (Pre-1980)) is “active; positive”; the mutagenic call (Species/Cell Type: Human cell culture, Assay Type: Chromosome aberrations in vitro, Assay Code: CYZ+, Evaluation Type: Evaluation A (Pre-1980)) is “active; positive”; the mutagenic call (Species/Cell Type: Human diploid fibroblasts, Assay Type: Unscheduled DNA synthesis (UDS) in vitro, DNA effects, Assay Code: UDH+, Evaluation Type: Evaluation A (Pre-1980)) was “active; positive”; the mutagenic call (Species/Cell Type: Human lymphocytes, Assay Type: Sister-chromatid exchange (SCE) in vitro, Assay Code: SCL+D, Dose Response: With dose response, Evaluation Type: Evaluation B (Post-1980)) is “active; positive”; the mutagenic call (Species/Cell Type: Human, Assay Type: Sister-chromatid exchange (SCE) in vitro, Assay Code: SC1+D, Dose Response: With dose response, Evaluation Type: Evaluation B (Post-1980)) was “active; positive”. The mutagenic call by setting is: (Species/Cell Type: Mammalian polychromatic erythrocytes, Assay Type: Micronucleus test, chromosome aberrations, Assay Code: MNTT, Evaluation Type: Evaluation A (Pre-1980)) “no conclusion”; (Species/Cell Type: Mouse germ cells, Sex: Male, Assay Type: Unscheduled DNA synthesis (UDS) in vivo, DNA effects, Assay Code: UDT+, Evaluation Type: Evaluation A (Pre-1980)) “active; positive”; (Species/Cell Type: Mouse, Sex: Male, Assay Type: Sperm morphology, Assay Code: SPI+, Evaluation Type: Evaluation A (Pre-1980)) “active; positive”; (Species/Cell Type: Neurospora crassa, Assay Type: Forward gene mutation, Assay Code: NEF+, Evaluation Type: Evaluation A (Pre-1980)) “active; positive”; (Species/Cell Type: Neurospora crassa, Assay Type: Reverse gene mutation, Assay Code: NER+, Evaluation Type: Evaluation A (Pre-1980)) “active; positive”; (Species/Cell Type: Nonhuman, Assay Type: Sister-chromatid exchange (SCE) in vitro, Assay Code: SC2+, Evaluation Type: Evaluation A (Pre-1980)) “active; positive”. Further, the mutagenic call is, setting by setting: (Species/Cell Type: Nonhuman, Assay Type: Sister-chromatid exchange (SCE) in vitro, Assay Code: SC2+D, Dose Response: With dose response, Evaluation Type: Evaluation B (Post-1980)) “active; positive”; (Species/Cell Type: Nonhuman, Assay Type: Sister-chromatid exchange (SCE) in vivo, Assay Code: SC3+D, Dose Response: With dose response, Evaluation Type: Evaluation B (Post-1980)) “active; positive”; (Species/Cell Type: Rat primary hepatocytes, Assay Type: Unscheduled DNA synthesis (UDS) in vitro, DNA effects, Assay Code: UDP+, Evaluation Type: Evaluation A (Pre-1980)) “active; positive”; (Species/Cell Type: Rodents, Sex: Male, Assay Type: Dominant lethal test, Assay Code: DLT-, Evaluation Type: Evaluation A (Pre-1980)) “inactive; negative”; (Species/Cell Type: Saccharomyces cerevisiae, Assay Type: Aneuploidy, chromosome aberrations, Assay Code: YEN+, Evaluation Type: Evaluation A (Pre-1980)) “active; positive”; under setting [3], “active; positive”. For the same molecule, the mutagenic call is “active; positive” (Species/Cell Type: Saccharomyces cerevisiae, Assay Type: Reverse gene mutation, Assay Code: YER+, Evaluation Type: Evaluation A (Pre-1980)); “active; positive” under setting [5]; “active; positive” (Species/Cell Type: Salmonella typhimurium, Escherichia coli, Serratia marcesens, Assay Type: Forward and reverse gene mutation, host-mediated assay, Assay Code: HMN+, Evaluation Type: Evaluation A (Pre-1980)); “active; positive” (Species/Cell Type: Vicia faba, Assay Type: Chromosome aberrations, Assay Code: VIC+, Evaluation Type: Evaluation A (Pre-1980)); “active; positive” (Species/Cell Type: Zea mays (corn), Assay Type: Gene mutation, Assay Code: ZEM+D, Dose Response: With dose response, Evaluation Type: Evaluation A (Pre-1980)). Moreover, the call (Species/Cell Type: Nonhuman, Assay Code: CCG+, Evaluation Type: Evaluation A (Pre-1980)) is “active; positive”.
